The record followed here is patent publication US20210379068A1, “METHODS AND MATERIALS FOR TREATING NEUROPSYCHIATRIC DISORDERS” (Mayo Foundation for Medical Education and Research, priority 2018, published 2021).

Type in all cases: in vivo, mouse
Assay [1] relates to HFD-fed INK-ATTAC mice. As to the kind of experiment: Open field test, chow/HFD INK-ATTAC mice treated with AP20187. On the procedure:
(§1) INK-ATTAC mice were injected intraperitoneally (i.p.) with AP20187 (10 mg/kg) or vehicle for 3 days every 2 weeks for a total of 8-10 weeks.
Locomotor activity and anxiety-like behavior of mice were assessed in sound-insulated, rectangular activity chambers (Med Associates Inc., St Albans, Vt., USA: W×L×D=27 cm×27 cm×20 cm with continually running fans, infrared lasers, and sensors). Beam breaks were assessed in 2-minute bins over 30 minutes, converted automatically to current mouse location and distance travelled (cm), and recorded on a computer with Med-PC software Version 4.0. Before the test, mice were acclimatized to the room for 1-1.5 hours before being introduced into the chambers. Mice were habituated for 5 minutes in the Open Field chamber (without recording) then placed for another 5 minutes in the home cage. Afterwards, mice were introduced back to the chambers and all mouse movements were recorded for 30 minutes. Anxiety was quantified by the distance mice travelled in the central 25% of the chamber (zone 1) as a function of the total distance mice travelled and by frequencies of entries into zone 1.

The subject of assay [2] is HFD-fed INK-ATTAC mice. In words: Elevated plus maze, chow/HFD INK-ATTAC mice treated with AP20187. The conditions noted are these: INK-ATTAC mice on HFD; AP20187 10 mg/kg i.p. vs vehicle. On the procedure: as §1
A grey colored elevated plus maze apparatus was used. Two open arms (25×5 cm) and two closed arms (25×5 cm) were attached at right angles to a central platform (5×5 cm). The apparatus was set 40 cm above the floor. Mice were first acclimatized to the room for 1-1.5 hours. Mice were then placed individually on the central platform with their back to one of the open arms. Before the test, mice were habituated for 1 minute to the maze, then placed back in the home cage for 5 minutes. Mice were tested for 5 minutes during which they could freely explore the apparatus. Tracking software (Ethovision) recognizes mouse head, central body point, and the base of the tail. Anxiety was quantified by frequency of and time spent during head pokes/dips toward open arms. Higher anxiety is indicated by a lower frequency of movement into open arms and less time spent there.

For assay [3], the system named is senescent cells in perigonadal adipose tissue. As to the kind of experiment: Senescence markers in perigonadal adipose tissue, INK-ATTAC mice on HFD. The conditions noted are these: AP20187 vs vehicle. On the procedure:
as §1
Total RNA was extracted from white adipose tissue and brain using Trizol (Life Technologies, Carlsbad, Calif.) and reverse transcribed to cDNA with a M-MLV Reverse Transcriptase kit (Life Technologies). Real-time PCR was performed in a 7500 Fast Real Time PCR System (Applied Biosystems, Foster City, Calif.) using TaqMan Fast Universal PCR Master Mix (Life Technologies) and predesigned primers and probes from Applied Biosystems (Assay ID: Mm00494449_m1 [CDKN2A]; Mm04205640_g1 [CDKN1A]; Mm00446191_m1 [IL6]). Target gene expression was expressed as 2-ΔΔCT by the comparative CT method and normalized to the expression of TATA-binding protein (TBP) (Assay ID: Mm01277042 ml [TBP]).
On the day of the sacrifice, a small piece of adipose tissue was fixed with 2% PFA and 0.5% glutaraldehyde (Sigma) for 15 minutes at room temperature before being incubated overnight in SA-β-Gal solution (150 mM NaCl (Sigma), 2 mM MgCl2 (Sigma), 40 mM Citric Acid (Sigma), 12 mM NaPO3 (Sigma), 400 μg/ml X-gal (Thermofisher), 2.1 mg/ml potassium hexacyanoferrat(II)trihydrate, and 1.65 mg/ml Potassium hexacyanoferrat(III)trihydrate (Sigma), pH 6.0) at 37° C. overnight. Fat chunks were washed with PBS three times and stored in PBS at 4° C. protected from light. Within 3 days, adipose tissue was stained with Hoechst solution (1:5000; Thermofisher), lightly squashed between two 1×3 inch glass slides, and imaged using a light microscope. 10-20 random visual fields were captured at 20× magnification at light exposure identical for all the samples. Images were quantified by manual counting of SA-β-Gal positive cells by a blinded assessor and the data were expressed as percent of total DAPI-positive cells.
Paraffin sections were deparaffinized with Histoclear and hydrated in an ethanol gradient followed by water and PBS. Antigen was retrieved by incubation in 0.01M citrate buffer (pH 6.0) at 95° C. for 10 minutes. Slides were placed in blocking buffer (1:60 normal goat serum [S-1000, Vector Laboratories] in 0.1% BSA/PBS) for 60 minutes at room temperature. […] Primary antibodies used (Table 2) were diluted in blocking buffer and applied overnight at 4° C. The next day, slides were washed 3 times with PBS and incubated for 30 minutes with secondary goat, anti-rabbit antibody (1:200; Vector Laboratories #BA-1000) for TAF staining or for 60 minutes with secondary Alexa antibody (Table 1). For TAF staining, Fluorescein-Avidin in PBS (1:500; #A-2011, Vector Lab) was applied to each sample for 20 minutes. Slides were washed 3 times in PBS, which was followed by FISH for TAF detection. Briefly, tissues were crosslinked with 4% paraformaldehyde for 20 minutes and dehydrated in graded ethanol. Sections were denatured for 10 minutes at 80° C. in hybridization buffer (70% formamide (Sigma), 25 mM MgCl2, 0.1 M Tris (pH 7.2), and 5% blocking reagent [Roche]) containing 2.5 μg ml^−1 Cy-3-labelled telomere-specific (CCCTAA) peptide nucleic acid probe (Panagene), followed by hybridization for 2 hour at room temperature in the dark. Slides were washed twice with 70% formamide in 2×SSC for 15 minutes, followed by washes in 2×SSC and PBS for 10 minutes. Sections were mounted in Vectashield, DAPI-containing mounting media and imaged.
A single, 3 μm-thick section per mouse was used for TAF staining, while for Dcx and Plin2 staining was performed on three 10 μm-thick sections 80 μm-apart. To quantify periventricular lipid accumulation 10-30 images in the periventricular region were taken using the DM5500 widefield fluorescence microscope from Leica with a 10× (for frequency of periventricular glia) or ×40 (for ALISE phenotype of ependymal cells) objective lens. Number of Plin2-positive cells (for frequency of ALISE-positive periventricular glia) or area of Plin2-positive vesicles (for ALISE phenotype of ependymal cells) was assessed using ImageJ software. […]

The mark [4] stands for this setting: INK-ATTAC mice on HFD, AP20187 10 mg/kg i.p. 3 days every 2 weeks, 8-10 weeks, vs vehicle.

Entries after “also recorded” stand apart in the source; their conditions may differ.

Turning to `CC[C@H](C(=O)N1CCCC[C@H]1C(=O)O[C@H](CCc1ccc(OC)c(OC)c1)c1cccc(OCC(=O)NCC(CNC(=O)COc2cccc([C@@H](CCc3ccc(OC)c(OC)c3)OC(=O)[C@@H]3CCCCN3C(=O)[C@@H](CC)c3cc(OC)c(OC)c(OC)c3)c2)CN(C)C)c1)c1cc(OC)c(OC)c(OC)c1` [AP], in the assay with HFD-fed INK-ATTAC mice [1] (setting [4]), the “anxiety-like behavior: distance travelled in the central zone (as function of total distance), open field” value is reported as “alleviated; also recorded: reduced HFD-induced anxiety-like behavior” and the “anxiety-like behavior: entries into the central zone, open field” value is “alleviated; also recorded: reduced HFD-induced anxiety-like behavior”. Also, the “total distance travelled, open field” value with HFD-fed INK-ATTAC mice [1] (INK-ATTAC mice, AP20187 10 mg/kg i.p. vs vehicle) is “did not affect”. Also, the “open field parameters (central distance, entries) in chow-fed mice” value with HFD-fed INK-ATTAC mice [1] (chow-fed INK-ATTAC mice, AP20187 10 mg/kg i.p. vs vehicle) is “did not affect”. In addition, in the assay on HFD-fed INK-ATTAC mice [2], the “anxiety-like phenotype: frequency of head entries/pokes into the open arms, EPM” value is recorded as “increased; also recorded: significantly decreased the anxiety-like phenotype” and the “time mice spent with their heads in open area, EPM” value was “increased”. Also, in assay [3], the “% SA-β-Gal positive cells, perigonadal adipose tissue” value is recorded as “significantly reduced”; the “p16Ink4a (RT-PCR), perigonadal adipose tissue” value is recorded as “significantly reduced”; the “p21 (PCR), perigonadal adipose tissue” value is “not significantly changed”; the “telomere-associated DNA damage foci (TAF), perigonadal adipose tissue” value is listed as “significantly reduced”. For the same molecule, the “γ-H2A.X DNA damage foci, perigonadal adipose tissue” value in assay [3] is “not significantly changed”. Moreover, in assay [3] (listed as AP20187), the “% SA-β-Gal positive cells, perigonadal adipose tissue” value is “complete rescue”; the “p21 (PCR), perigonadal adipose tissue” value is “no change”; the “γ-H2A.X DNA damage foci, perigonadal adipose tissue” value was “no change”.
